Results: PMC4197230, “Terpene synthases and their contribution to herbivore-induced volatile emission in western balsam poplar (Populus trichocarpa)” (BMC Plant Biology, 2014)

Experiments:
Format in all cases: biochemical
[1] = biological target: T1, PtTPS10 (Populus trichocarpa, UniProt A0A076GH23); experiment: hexane overlay GC-MS product analysis, bacterial extract; conditions: 50 uM GGPP, 10 mM MgCl2, pH 7.0, 30 C, 60 min; desalted E. coli extract, empty-vector control
T1 construct: gene TPS10; full ORF in pASK-IBA7 (vector tag, if any, not described), E. coli TOP10, desalted bacterial extract
T1 sequence (A0A076GH23 1-836): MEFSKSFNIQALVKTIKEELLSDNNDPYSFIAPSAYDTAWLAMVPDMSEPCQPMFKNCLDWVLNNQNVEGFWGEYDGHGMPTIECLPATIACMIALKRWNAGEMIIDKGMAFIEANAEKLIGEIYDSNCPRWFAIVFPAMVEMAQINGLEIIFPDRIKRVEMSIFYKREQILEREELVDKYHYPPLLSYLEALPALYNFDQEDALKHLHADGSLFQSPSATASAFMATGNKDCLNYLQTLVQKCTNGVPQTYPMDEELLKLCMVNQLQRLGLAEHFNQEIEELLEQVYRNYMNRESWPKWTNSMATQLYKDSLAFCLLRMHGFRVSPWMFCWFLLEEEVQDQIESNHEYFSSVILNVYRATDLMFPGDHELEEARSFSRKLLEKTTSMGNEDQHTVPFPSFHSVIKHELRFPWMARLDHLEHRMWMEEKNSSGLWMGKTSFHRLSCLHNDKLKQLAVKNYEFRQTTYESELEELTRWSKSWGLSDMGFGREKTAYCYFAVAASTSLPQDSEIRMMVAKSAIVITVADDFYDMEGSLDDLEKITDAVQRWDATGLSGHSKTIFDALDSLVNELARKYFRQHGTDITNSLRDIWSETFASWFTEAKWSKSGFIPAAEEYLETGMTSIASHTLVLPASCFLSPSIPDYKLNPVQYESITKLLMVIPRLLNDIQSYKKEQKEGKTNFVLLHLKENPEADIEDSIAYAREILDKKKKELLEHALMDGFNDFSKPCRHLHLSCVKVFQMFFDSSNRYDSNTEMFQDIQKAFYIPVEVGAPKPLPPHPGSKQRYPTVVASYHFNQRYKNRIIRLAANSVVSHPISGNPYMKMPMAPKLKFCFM

[2] = biological target: T2, PtTPS12 (Populus trichocarpa, UniProt A0A076GAU9); experiment: SPME GC-MS product analysis, bacterial extract; conditions: 10 mM MgCl2, pH 7.0, 30 C, desalted E. coli extract, empty-vector control
T2 construct: gene TPS12; N-terminally truncated (first 126 nt deleted, predicted plastid transit peptide), pASK-IBA7, E. coli TOP10, desalted bacterial extract
T2 sequence (A0A076GAU9 entry or part of it): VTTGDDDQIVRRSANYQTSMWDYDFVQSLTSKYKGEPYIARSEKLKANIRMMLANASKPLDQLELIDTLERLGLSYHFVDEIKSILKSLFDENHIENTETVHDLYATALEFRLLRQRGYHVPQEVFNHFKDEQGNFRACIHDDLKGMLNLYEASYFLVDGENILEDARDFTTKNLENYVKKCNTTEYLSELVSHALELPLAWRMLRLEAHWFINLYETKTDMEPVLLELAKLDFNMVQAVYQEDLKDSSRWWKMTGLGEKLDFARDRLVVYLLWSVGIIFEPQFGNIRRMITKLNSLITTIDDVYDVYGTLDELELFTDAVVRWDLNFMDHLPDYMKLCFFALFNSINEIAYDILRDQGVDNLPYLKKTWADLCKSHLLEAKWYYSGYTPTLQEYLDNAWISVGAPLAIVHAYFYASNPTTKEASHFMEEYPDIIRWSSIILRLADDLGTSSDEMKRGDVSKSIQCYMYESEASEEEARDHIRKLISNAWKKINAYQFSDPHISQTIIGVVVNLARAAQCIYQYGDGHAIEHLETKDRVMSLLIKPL

[3] = biological target: T3, PtTPS11 (Populus trichocarpa, UniProt A0A076GAR6); experiment: SPME GC-MS product analysis, bacterial extract; conditions: 10 uM GPP, 10 mM MgCl2, pH 7.0, 30 C; desalted E. coli extract, empty-vector control
T3 construct: gene TPS11; full ORF in pASK-IBA7 (vector tag, if any, not described), E. coli TOP10, desalted bacterial extract
T3 sequence (A0A076GAR6 1-551): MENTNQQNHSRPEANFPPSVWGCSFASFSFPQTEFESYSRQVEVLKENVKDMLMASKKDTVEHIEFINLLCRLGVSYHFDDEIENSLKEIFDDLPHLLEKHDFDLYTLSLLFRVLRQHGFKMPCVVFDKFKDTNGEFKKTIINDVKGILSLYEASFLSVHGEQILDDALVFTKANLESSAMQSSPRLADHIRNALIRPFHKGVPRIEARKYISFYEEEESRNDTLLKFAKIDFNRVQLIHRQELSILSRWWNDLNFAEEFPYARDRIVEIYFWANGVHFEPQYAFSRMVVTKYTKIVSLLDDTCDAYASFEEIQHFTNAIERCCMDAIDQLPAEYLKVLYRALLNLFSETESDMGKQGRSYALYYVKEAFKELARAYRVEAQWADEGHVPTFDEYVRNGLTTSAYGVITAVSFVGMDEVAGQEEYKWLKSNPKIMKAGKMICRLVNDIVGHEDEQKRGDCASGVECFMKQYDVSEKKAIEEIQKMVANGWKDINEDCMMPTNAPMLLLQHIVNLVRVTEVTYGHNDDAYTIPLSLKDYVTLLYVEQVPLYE

[4] = biological target: T4, PtTPS6 (Populus trichocarpa, UniProt A0A076GAR5); experiment: SPME GC-MS product analysis, bacterial extract; conditions: 10 uM GPP, 10 mM MgCl2, pH 7.0, 30 C; desalted E. coli extract, empty-vector control
T4 construct: gene TPS6; N-terminally truncated (first 57 nt deleted, predicted plastid transit peptide), pASK-IBA7, E. coli TOP10, desalted bacterial extract
T4 sequence (A0A076GAR5 entry or part of it): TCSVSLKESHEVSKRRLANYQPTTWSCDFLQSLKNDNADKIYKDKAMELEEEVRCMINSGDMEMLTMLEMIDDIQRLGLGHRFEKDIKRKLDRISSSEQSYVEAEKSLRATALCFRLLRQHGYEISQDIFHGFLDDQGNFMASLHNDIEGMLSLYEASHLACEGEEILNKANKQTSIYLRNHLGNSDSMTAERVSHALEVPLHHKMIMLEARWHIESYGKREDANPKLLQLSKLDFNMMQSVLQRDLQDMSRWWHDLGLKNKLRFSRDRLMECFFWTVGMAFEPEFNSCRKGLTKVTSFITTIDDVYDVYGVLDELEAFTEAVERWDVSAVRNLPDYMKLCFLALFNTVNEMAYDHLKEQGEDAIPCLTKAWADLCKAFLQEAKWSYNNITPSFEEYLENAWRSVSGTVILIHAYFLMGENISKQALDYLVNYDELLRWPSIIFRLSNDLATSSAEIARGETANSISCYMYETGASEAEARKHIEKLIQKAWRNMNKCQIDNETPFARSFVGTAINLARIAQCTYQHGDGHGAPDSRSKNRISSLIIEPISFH

[5] = biological target: T5, PtTPS15 (Populus trichocarpa, UniProt A0A076GBT1); experiment: SPME GC-MS product analysis, bacterial extract; conditions: 10 mM MgCl2, pH 7.0, 30 C, desalted E. coli extract, empty-vector control
T5 construct: gene TPS15; full ORF in pASK-IBA7 (vector tag, if any, not described), E. coli TOP10, desalted bacterial extract
T5 sequence (A0A076GBT1 1-528): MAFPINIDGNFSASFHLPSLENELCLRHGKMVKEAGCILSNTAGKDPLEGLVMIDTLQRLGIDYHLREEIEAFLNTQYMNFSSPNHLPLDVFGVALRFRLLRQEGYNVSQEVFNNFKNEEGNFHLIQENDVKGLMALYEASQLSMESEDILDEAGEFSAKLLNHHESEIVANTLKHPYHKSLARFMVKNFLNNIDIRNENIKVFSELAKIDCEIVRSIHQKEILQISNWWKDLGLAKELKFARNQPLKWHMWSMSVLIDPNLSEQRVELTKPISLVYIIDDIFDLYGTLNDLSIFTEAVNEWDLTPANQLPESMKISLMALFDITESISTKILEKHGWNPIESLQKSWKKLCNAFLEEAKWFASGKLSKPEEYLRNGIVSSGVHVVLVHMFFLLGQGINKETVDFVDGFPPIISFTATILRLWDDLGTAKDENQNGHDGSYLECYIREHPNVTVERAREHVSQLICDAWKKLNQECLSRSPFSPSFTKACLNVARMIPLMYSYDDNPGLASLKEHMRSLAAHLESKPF

[6] = biological target: T6, PtTPS14 (Populus trichocarpa, UniProt A0A076GBU1); experiment: SPME GC-MS product analysis, bacterial extract; conditions: 10 uM FPP, 10 mM MgCl2, pH 7.0, 30 C; desalted E. coli extract, empty-vector control; marginal activity
T6 construct: gene TPS14; full ORF in pASK-IBA7 (vector tag, if any, not described), E. coli TOP10, desalted bacterial extract
T6 sequence (A0A076GBU1 1-560): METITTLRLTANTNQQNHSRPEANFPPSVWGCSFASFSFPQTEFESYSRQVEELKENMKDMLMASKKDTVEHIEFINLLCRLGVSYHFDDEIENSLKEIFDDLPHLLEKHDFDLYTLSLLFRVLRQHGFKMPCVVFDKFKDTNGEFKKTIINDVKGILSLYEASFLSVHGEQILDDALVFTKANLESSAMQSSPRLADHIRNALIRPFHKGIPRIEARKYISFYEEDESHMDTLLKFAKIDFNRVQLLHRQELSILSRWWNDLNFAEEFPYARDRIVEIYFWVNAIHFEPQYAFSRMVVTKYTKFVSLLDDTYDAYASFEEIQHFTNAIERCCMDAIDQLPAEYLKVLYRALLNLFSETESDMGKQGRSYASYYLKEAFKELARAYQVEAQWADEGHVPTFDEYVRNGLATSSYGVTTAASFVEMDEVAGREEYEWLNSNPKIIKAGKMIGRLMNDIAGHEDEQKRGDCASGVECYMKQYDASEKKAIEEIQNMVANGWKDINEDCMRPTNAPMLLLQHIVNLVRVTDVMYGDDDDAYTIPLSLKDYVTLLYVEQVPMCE

[7] = biological target: T7, PtTPS9 (Populus trichocarpa, UniProt A0A076GBT5); experiment: SPME GC-MS product analysis, bacterial extract; conditions: 10 uM FPP, 10 mM MgCl2, pH 7.0, 30 C; desalted E. coli extract, empty-vector control
T7 construct: gene TPS9; full ORF in pASK-IBA7 (vector tag, if any, not described), E. coli TOP10, desalted bacterial extract
T7 sequence (A0A076GBT5 1-569): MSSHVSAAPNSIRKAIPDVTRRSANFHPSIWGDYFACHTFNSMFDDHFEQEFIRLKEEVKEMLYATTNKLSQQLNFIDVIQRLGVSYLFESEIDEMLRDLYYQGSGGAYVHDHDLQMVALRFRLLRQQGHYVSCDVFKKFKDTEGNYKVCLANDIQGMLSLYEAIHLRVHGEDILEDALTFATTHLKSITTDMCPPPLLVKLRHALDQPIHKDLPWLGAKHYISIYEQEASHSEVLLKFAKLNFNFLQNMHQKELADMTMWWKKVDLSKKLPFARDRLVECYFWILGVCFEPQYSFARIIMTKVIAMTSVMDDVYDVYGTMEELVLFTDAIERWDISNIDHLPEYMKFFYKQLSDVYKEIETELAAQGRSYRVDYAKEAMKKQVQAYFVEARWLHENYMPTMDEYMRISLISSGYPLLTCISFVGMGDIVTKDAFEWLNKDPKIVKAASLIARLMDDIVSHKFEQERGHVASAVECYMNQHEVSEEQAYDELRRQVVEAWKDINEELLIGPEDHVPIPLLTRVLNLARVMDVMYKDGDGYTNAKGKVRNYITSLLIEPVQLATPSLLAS

CC(C)=CCC/C(C)=C/CC/C(C)=C/CC/C(C)=C/COP(=O)(O)OP(=O)(O)O [GGPP]
hexane overlay GC-MS product analysis, bacterial extract [1]: PtTPS10 represented a DTS and was able to convert GGPP into geranyllinalool

CC(C)=CCC/C(C)=C/COP(=O)(O)OP(=O)(O)O [GPP]
SPME GC-MS product analysis, bacterial extract ([2]; 10 uM GPP): PtTPS12 which formed linalool and trace amounts of β-phellandrene | SPME GC-MS product analysis, bacterial extract [3]: When offered GPP as a substrate, PtTPS11 formed several monoterpenes | SPME GC-MS product analysis, bacterial extract [4]: (PtTPS6, PtTPS12, PtTPS13 and PtTPS15) accepted GPP as substrate and produced monoterpenes | SPME GC-MS product analysis, bacterial extract ([5]; 10 uM GPP): PtTPS15, which produced only linalool

CC(C)=CCC/C(C)=C/CC/C(C)=C/COP(=O)(O)OP(=O)(O)O [FPP]
SPME GC-MS product analysis, bacterial extract ([2]; 10 uM FPP): PtTPS12 showed a broad sesquiterpene product spectrum | SPME GC-MS product analysis, bacterial extract [6]: PtTPS14 showed only marginal activity with FPP and produced trace amounts of germacrene D | SPME GC-MS product analysis, bacterial extract ([5]; 10 uM FPP): PtTPS15 was able to convert FPP to nerolidol | SPME GC-MS product analysis, bacterial extract [7]: PtTPS9 produced (E)-β-caryophyllene and smaller amounts of α-humulene
